For orientation: pIC50 means −log10 of the IC50, conventionally taken in molar units.

pIC50: −log10 of the molar value.

The test system of this test is HBsAg. Briefly: HBsAg assay (CLIA) in HepG2.2.15 cells. In kind it is cell-based, HBV. The settings on record: Hepatitis B virus, HepG2.2.15, read-out: IC50 (HBsAg assay). The protocol: HepG2.2.15 cells (Acs et al. Proc Natl Acad Sci USA, 84, (1987), 4641-4), a constitutively HBV-expressing cell line were cultured in DMEM+Glutamax-I medium (Invitrogen, Carlsbad, Calif., USA), supplemented with 10% fetal bovine serum (Invitrogen) and G418 (Invitrogen) at a final concentration of 200 mg/L and maintained in 5% CO2 at 37° C.
HepG2.2.15 cells were seeded in duplicate into white, 96-well plates at 1.5×10^4 cells/well. The cells were treated with a three-fold serial dilution series of the compounds in DMSO. The final DMSO concentration in all wells was 1% and DMSO was used as no drug control.
The HBsAg chemiluminescence immunoassay (CLIA) kit (Autobio Diagnostics Co., Zhengzhou, China, Catalog number: CL0310-2) was used to measure the levels of secreted HBV antigens semi-quantitatively. For the detection 50 μL/well culture supernatant was used and HBsAg was quantified using HBsAg chemiluminescence immunoassay (CLIA) kit (Autobio Diagnostics Co., Zhengzhou, China, Catalog number: CL0310-2), 50 μL of the supernatant was transferred to the CLIA assay plate and 50 μL of enzyme conjugate reagent was added into each well. The plates were sealed and gently agitated for 1 hour at room temperature. The supernatant-enzyme-mixture was discarded and wells were washed 6 times with 300 μL of PBS. The residual liquid was removed by plating the CLIA plate […] on absorbent tissue paper. 25 μL of substrates A and B were added to each well. Luminance was measured using a luminometer (Mithras LB 940 Multimode Microplate Reader) after 10 minutes incubation. Dose-response curves were generated and the IC50 value was extrapolated by using the E-WorkBook Suite (ID Business Solutions Ltd., Guildford, UK). The IC50 was defined as the compound concentration (or conditioned media log dilution) at which HBsAg secretion was reduced by 50% compared to the no drug control.

For the molecule `CC1c2cnc(-c3ncccn3)nc2CN1C(=O)c1cnn2ccccc12` (centres unmarked) [Example 24, (5-Methyl-2-pyrimidin-2-yl-5,7-dihydropyrrolo[3,4-d]pyrimidin-6-yl)-pyrazolo[1,5-a]pyridin-3-yl-methanone], the pIC50 is 6.81.
The value for `CC1c2cnc(-c3ncccn3)nc2CN1c1cc(N2CCC2)cc(F)n1` (centres unmarked) [Example 39, 6-[4-(Azetidin-1-yl)-6-fluoro-2-pyridyl]-5-methyl-2-pyrimidin-2-yl-5,7-dihydropyrrolo[3,4-d]pyrimidine] was 7.70.
The value for `CC1c2cnc(-c3ncccn3)nc2CN1C(=O)c1cnn(C)c1` (centres unmarked) [Example 11, (1-Methylpyrazol-4-yl)-(5-methyl-2-pyrimidin-2-yl-5,7-dihydropyrrolo[3,4-d]pyrimidin-6-yl)methanone] was 5.21; that for `CC1c2cnc(-c3ncccn3)nc2CN1c1cc(F)nc(N2CC3(COC3)C2)c1` (centres unmarked) [Example 35, 6-[6-Fluoro-4-(5-Methyl-2-Pyrimidin-2-Yl-5,7-Dihydropyrrolo[3,4-d]Pyrimidin-6-Yl)-2-Pyridyl]-2-Oxa-6-Azaspiro[3.3]Heptane] was 6.23; that for `CC1c2cnc(-c3ncccn3)nc2CN1C(=O)c1noc2ccccc12` (centres unmarked) [Example 27, 1,2-Benzoxazol-3-yl-(5-methyl-2-pyrimidin-2-yl-5,7-dihydropyrrolo[3,4-d]pyrimidin-6-yl)methanone] was 6.21.
`CC1c2cnc(-c3ncccn3)nc2CN1c1cc(N2CCNCC2)cc(F)n1` (centres unmarked) [Example 43, 6-(6-Fluoro-4-piperazin-1-yl-2-pyridyl)-5-methyl-2-pyrimidin-2-yl-5,7-dihydropyrrolo[3,4-d]pyrimidine]: the pIC50 is 5.37.
The value for `CC1c2cnc(-c3ncccn3)nc2CN1C(=O)c1cccs1` (centres unmarked) [Example 5, (5-Methyl-2-pyrimidin-2-yl-5,7-dihydropyrrolo[3,4-d]pyrimidin-6-yl)-(2-thienyl)methanone] was 5.77; that for `COc1ccc(C(=O)N2Cc3nc(-c4ncccn4)ncc3C2C)s1` (centres unmarked) [Example 2, (5-Methoxy-2-thienyl)-(5-methyl-2-pyrimidin-2-yl-5,7-dihydropyrrolo[3,4-d]pyrimidin-6-yl)methanone] was 6.48.
The value for `CC1c2cnc(-c3ncccn3)nc2CN1C(=O)c1ccc2ccccc2c1` (centres unmarked) [Example 19, (5-Methyl-2-pyrimidin-2-yl-5,7-dihydropyrrolo[3,4-d]pyrimidin-6-yl)-(2-naphthyl)methanone] was 5.10; that for `CC1c2cnc(-c3ncccn3)nc2CN1C(=O)c1ccn(C)n1` (centres unmarked) [Example 13, (1-Methylpyrazol-3-yl)-(5-methyl-2-pyrimidin-2-yl-5,7-dihydropyrrolo[3,4-d]pyrimidin-6-yl)methanone] was 5.45; that for `CC1c2cnc(-c3ncccn3)nc2CN1C(=O)c1cn2ccccc2n1` (centres unmarked) [Example 20, Imidazo[1,2-a]pyridin-2-yl-(5-methyl-2-pyrimidin-2-yl-5,7-dihydropyrrolo[3,4-d]pyrimidin-6-yl)methanone] was 6.30.
As for `CC1c2cnc(-c3ncccn3)nc2CN1C(=O)c1cc(Br)cs1` (centres unmarked) [Example 7, (4-Bromo-2-thienyl)-(5-methyl-2-pyrimidin-2-yl-5,7-dihydropyrrolo[3,4-d]pyrimidin-6-yl)methanone], the figure is 6.04; as for `CC1c2cnc(-c3ncccn3)nc2CN1C(=O)c1cnc2ccccn12` (centres unmarked) [Example 26, Imidazo[1,2-a]pyridin-3-yl-(5-methyl-2-pyrimidin-2-yl-5,7-dihydropyrrolo[3,4-d]pyrimidin-6-yl)methanone], 6.66.
In the case of `CC1c2cnc(-c3ncccn3)nc2CN1c1cc(F)nc(F)c1` (centres unmarked) [Example 32, 6-(2,6-difluoro-4-pyridyl)-5-methyl-2-pyrimidin-2-yl-5,7-dihydropyrrolo[3,4-d]pyrimidine], the pIC50 was 5.70.
Turning to `CC1c2cnc(-c3ncccn3)nc2CN1c1cc(F)cc(F)n1` (centres unmarked) [Example 31, 6-(4,6-difluoro-2-pyridyl)-5-methyl-2-pyrimidin-2-yl-5,7-dihydropyrrolo[3,4-d]pyrimidine], the pIC50 is 6.18.
The value for `CC1c2cnc(-c3ncccn3)nc2CN1c1cc(F)cc(N2CC3(COC3)C2)n1` (centres unmarked) [Example 36, 6-[4-Fluoro-6-(5-Methyl-2-Pyrimidin-2-Yl-5,7-Dihydropyrrolo[3,4-d]Pyrimidin-6-Yl)-2-Pyridyl]-2-Oxa-6-Azaspiro[3.3]Heptane] was 6.06.
As for `CCn1ccc(C(=O)N2Cc3nc(-c4ncccn4)ncc3C2C)n1` (centres unmarked) [Example 16, (1-Ethylpyrazol-3-yl)-(5-methyl-2-pyrimidin-2-yl-5,7-dihydropyrrolo[3,4-d]pyrimidin-6-yl)methanone], the pIC50 was 5.33.
Regarding `CC1c2cnc(-c3ncccn3)nc2CN1c1cc(N2CCN(S(C)(=O)=O)CC2)cc(F)n1` (centres unmarked) [Example 44, 6-[6-Fluoro-4-(4-methylsulfonylpiperazin-1-yl)-2-pyridyl]-5-methyl-2-pyrimidin-2-yl-5,7-dihydropyrrolo[3,4-d]pyrimidine], the pIC50 was 6.85.
As for `CC1c2cnc(-c3ncccn3)nc2CN1c1cc(N2CCCC2)cc(F)n1` (centres unmarked) [Example 40, 6-(6-Fluoro-4-pyrrolidin-1-yl-2-pyridyl)-5-methyl-2-pyrimidin-2-yl-5,7-dihydropyrrolo[3,4-d]pyrimidine], the pIC50 was 7.80.
In the case of `CC1c2cnc(-c3ncccn3)nc2CN1c1cc(N2CCOCC2)cc(F)n1` (centres unmarked) [Example 42, 4-[2-Fluoro-6-(5-methyl-2-pyrimidin-2-yl-5,7-dihydropyrrolo[3,4-d]pyrimidin-6-yl)-4-pyridyl]morpholine], the pIC50 was 7.40.
Consider `CC1c2cnc(-c3ncccn3)nc2CN1c1cc(N(C)C)cc(F)n1` (centres unmarked) [Example 38, 2-Fluoro-N,N-dimethyl-6-(5-methyl-2-pyrimidin-2-yl-5,7-dihydropyrrolo[3,4-d]pyrimidin-6-yl)pyridin-4-amine], for which the negative-log IC50 (pIC50) was 7.82.
Consider `CC1c2cnc(-c3ncccn3)nc2CN1C(=O)c1ccc(Br)s1` (centres unmarked) [Example 17, (5-Bromo-2-thienyl)-(5-methyl-2-pyrimidin-2-yl-5,7-dihydropyrrolo[3,4-d]pyrimidin-6-yl)methanone], for which the pIC50 was 6.12.
The value for `COc1cc(F)cc(C(=O)N2Cc3nc(-c4ncccn4)ncc3C2C)c1` (centres unmarked) [Example 4, (3-Fluoro-5-methoxy-phenyl)-(5-methyl-2-pyrimidin-2-yl-5,7-dihydropyrrolo[3,4-d]pyrimidin-6-yl)methanone] was 4.85; that for `COc1ccc(C(=O)N2Cc3nc(-c4ncccn4)ncc3C2C)cc1` (centres unmarked) [Example 15, (4-Methoxyphenyl)-(5-methyl-2-pyrimidin-2-yl-5,7-dihydropyrrolo[3,4-d]pyrimidin-6-yl)methanone] was 4.58; that for `CNc1cc(F)nc(N2Cc3nc(-c4ncccn4)ncc3C2C)c1` (centres unmarked) [Example 37, 2-Fluoro-N-methyl-6-(5-methyl-2-pyrimidin-2-yl-5,7-dihydropyrrolo[3,4-d]pyrimidin-6-yl)pyridin-4-amine] was 7.26.
As for `Cc1cnc(C(=O)N2Cc3nc(-c4ncccn4)ncc3C2C)s1` (centres unmarked) [Example 1, (5-Methyl-2-pyrimidin-2-yl-5,7-dihydropyrrolo[3,4-d]pyrimidin-6-yl)-(5-methylthiazol-2-yl)methanone], the pIC50 was 6.15.

These data come from patent US11225482B2, “Dihydropyrrolopyrimidines for the treatment and prophylaxis of hepatitis B virus infection” (Hoffmann-La Roche Inc., priority 2017, dated 2022).
